Source: patent US20160221948A1, “NITROGEN-CONTAINING SATURATED HETEROCYCLIC COMPOUND” (SUMITOMO CHEMICAL COMPANY, LIMITED, priority 2013, published 2016)

How the values were obtained:
[1] = test system: SH-SY5Y cells stably expressing human neprilysin/human SSTR4; assay: Neprilysin membrane translocation test using human neprilysin/human SSTR4 coexpressing cells; assay type: cell-based
Procedure: Neprilysin Membrane Translocation Test Using Human Neprilysin/Human SSTR4 Coexpressing Cells
SH-SY5Y cells stably expressing human neprilysin/human SSTR4 were seeded to culture plates, and incubated in a 37° C./5% CO2 incubator overnight. On the next day, the compounds involved with the present invention were added, and cells were incubated in the 37° C./5% CO2 incubator another night. On the next day, 4% paraformaldehyde was added, and cells were fixed. The cells were washed, and blocked with 3% BSA solution. Then, immunostaining with an anti-neprilysin antibody and Alexa Fluor 488 donkey anti-mouse IgG was performed, and analyzed with an IN CELL Analyzer.

human SSTR4 [2] = molecular target: T1, human SSTR4 (Homo sapiens, UniProt P31391); assay: Binding affinity using cell membrane from human SSTR4-expressing Chem-1 cells, [125I] Tyr11-Somatostatin 14; parameters: expressed in transfected cells; conditions: 0.1 nmol/L [125I] Tyr11-Somatostatin 14, 2 hours at 25° C.
T1 sequence (P31391 whole entry): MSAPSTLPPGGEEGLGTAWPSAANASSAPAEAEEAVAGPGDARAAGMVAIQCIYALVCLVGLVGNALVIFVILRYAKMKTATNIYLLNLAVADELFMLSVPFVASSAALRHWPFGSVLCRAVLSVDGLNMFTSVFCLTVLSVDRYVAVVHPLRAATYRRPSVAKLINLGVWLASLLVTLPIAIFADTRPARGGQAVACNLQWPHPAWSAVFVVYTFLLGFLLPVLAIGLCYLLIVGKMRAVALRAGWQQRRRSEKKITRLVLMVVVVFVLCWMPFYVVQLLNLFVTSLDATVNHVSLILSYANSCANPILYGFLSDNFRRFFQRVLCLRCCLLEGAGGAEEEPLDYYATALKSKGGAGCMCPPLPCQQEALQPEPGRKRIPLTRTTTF
Procedure: Binding affinity evaluation using cell membrane from human SSTR4-expressing cells
From Chem-1 cells forcibly expressing human SSTR4, cell membrane was prepared by using Hepes Buffer. A reaction solution consisting of the prepared cell membrane, 0.1 nmol/L [^125I] Tyr11-Somatostatin 14, and a test compound was prepared, and incubated for 2 hours at 25° C. The cell membrane after incubation was filtered, and washed. After dried, the filter was immersed in a scintillator, its radioactivity was measured with a scintillation counter. By defining the difference in radioactivity between the substance not containing a test compound and the substance containing 1 μmol/L Somatostatin 14 as the specific binding amount, inhibitory rates of test compounds were calculated. Based on IC50 of the test compound calculated from the inhibition curve, the concentration of [^125I] Tyr11-Somatostatin 14, and Kd of Somatostatin 14, Ki of the test compound was calculated.

human SSTR4 [3] = molecular target: T1, human SSTR4; assay: Evaluation of agonist activities using human SSTR4-stably expressing cells (aequorin luminescence); assay type: cell-based; parameters: expressed in transfected cells; host or cells: HEK293
Outline: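 HEK293 cells stably expressing SSTR4, transiently given Gα16 and apoaequorin, were loaded with 0.5 μmol/L coelenterazine H for 4 h at room temperature. After compound addition in Hanks/20 mM Hepes/0.1% BSA, luminescence was read for 90 s. Activity is relative to 1 μmol/L somatostatin as 100%.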

EC50 ([1]; Homo sapiens, SH-SY5Y, overnight incubation, immunostaining, IN CELL Analyzer): 9.3 nM
Ki (human SSTR4 [2]): 21 nM
SSTR4 agonist activity compared with other compounds (human SSTR4 [3]; Tables 25 to 27): stronger SSTR4 agonist activity
EC50 (human SSTR4 [3]; luminescence signal, 1 μmol/L somatostatin taken as 100%): 2 nM
SMILES: CN1CCC[C@H](C(=O)NC(C)(C)c2cc(Cl)ccc2Cl)C1 [Example 21, (3S)—N-[2-(2,5-dichlorophenyl)propane-2-yl]-1-methylpiperidine-3-carboxamide]
translocation of neprilysin to cell membrane [1]: concentration-dependently induced the translocation of neprilysin to cell membrane
